From patent US20120202690A1, “HERBICIDAL COMPOUNDS” (SYNGENTA LIMITED, priority 2009, published 2012) come the findings set out here.

Molecules are shown by their SMILES.

Common to all, as to format: in vivo
Assay [1] concerns Amaranthus retroflexus (AMARE). Put plainly: Post-emergence biological efficacy, glasshouse, 500 or 1000 g/ha, evaluated after 13 days (100=total damage to plant; 0=no damage to plant). To be noted: Amaranthus retroflexus, 312 h, rate 1,000 g/ha, read-out: Percentage damage caused to weed species, post-emergence, AMARE. Here is the method:
(§1) Seeds of Alopecurus myosuroides (ALOMY), Setaria faberi (SETFA), Echinochloa […]), Solanum nigrum (SOLNI), Amaranthus retroflexus (AMARE) and Ipomoea hederaceae (IPOHE) were sown in standard soil in pots. […] The test plants were then grown on under controlled conditions in a glasshouse (at 24/16° C., day/night; 14 hours light; 65% humidity) and watered twice daily. […]

Assay [2] concerns Setaria faberi (SETFA). The description is as above. The note with it: Setaria faberi, 312 h, rate 1,000 g/ha, read-out: Percentage damage caused to weed species, post-emergence, SETFA. Here is the method: as §1
Assay [3] deals with Solanum nigrum (SOLNI). The description is as above. To be noted: Solanum nigrum, 312 h, rate 1,000 g/ha, read-out: Percentage damage caused to weed species, post-emergence, SOLNI. On the procedure: as §1
Assay [4] relates to Alopecurus myosuroides (ALOMY). Described as above. The note with it: Alopecurus myosuroides, 312 h, rate 1,000 g/ha, read-out: Percentage damage caused to weed species, post-emergence, ALOMY. On the procedure:
as §1

Assay [5] concerns Ipomoea hederaceae (IPOHE). Described as above. The note with it: Ipomoea, 312 h, rate 1,000 g/ha, read-out: Percentage damage caused to weed species, post-emergence, IPOHE. On the procedure: as §1
The subject of assay [6] is Echinochloa crusgaffi (ECHCG). Described as above. To be noted: Echinochloa, 312 h, rate 1,000 g/ha, read-out: Percentage damage caused to weed species, post-emergence, ECHCG. Here is the method:
as §1

Assay [7] has as its system Amaranthus retroflexus (AMARE). Put plainly: Pre-emergence biological efficacy, glasshouse, 1000 g/ha, evaluated after 13 days (100=total damage to plant; 0=no damage to plant). To be noted: Amaranthus retroflexus, 312 h, rate 1,000 g/ha, read-out: Percentage damage caused to weed species, pre-emergence, AMARE. Here is the method: (§2) Seeds of Alopecurus myosuroides (ALOMY), Setaria faberi (SETFA), Echinochloa crus-galli (ECHCG), Solanum nigrum (SOLNI), Amaranthus retroflexus (AMARE) and Ipomoea hederaceae (IPOHE) were sown in standard soil in pots. […] The test plants were then grown under controlled conditions in the glasshouse (at 24/16° C., day/night; 14 hours light; 65% humidity) and watered twice daily. […]

In assay [8] the test system is Setaria faberi (SETFA). Described as above. To be noted: Setaria faberi, 312 h, rate 1,000 g/ha, read-out: Percentage damage caused to weed species, pre-emergence, SETFA. Here is the method: as §2
Assay [9] deals with Echinochloa crus-galli (ECHCG). Described as above. To be noted: Echinochloa crus-galli, 312 h, rate 1,000 g/ha, read-out: Percentage damage caused to weed species, pre-emergence, ECHCG. Here is the method: as §2
In assay [10] the test system is Solanum nigrum (SOLNI). Described as above. The note with it: Solanum nigrum, 312 h, rate 1,000 g/ha, read-out: Percentage damage caused to weed species, pre-emergence, SOLNI. Here is the method: as §2
The subject of assay [11] is Alopecurus myosuroides (ALOMY). The description is as above. To be noted: Alopecurus myosuroides, 312 h, rate 1,000 g/ha, read-out: Percentage damage caused to weed species, pre-emergence, ALOMY. Here is the method:
as §2

Assay [12] concerns Ipomoea hederaceae (IPOHE). The assay is described as above. The note with it: Ipomoea, 312 h, rate 1,000 g/ha, read-out: Percentage damage caused to weed species, pre-emergence, IPOHE. On the procedure:
as §2

Consider `COC(=O)c1nc(-c2ccc(Cl)c(F)c2)nc2[nH]c(C)c(C)c12` [Compound 1-24, 2-(4-chloro-3-fluorophenyl)-5,6-dimethyl-4-methoxycarbonyl-7H-pyrrolo[2,3-d]pyrimidine], for which the pest or weed control at 1000 g/ha in [1] came to 10%; in the assay with Setaria faberi (SETFA) [2] it was 0%; in the assay with Solanum nigrum (SOLNI) [3], 50%; in [4], 0%; in assay [5], 20%; in [6], 0%. For the same compound, the pest or weed control at 1000 g/ha (in [7]; in the assay with Setaria faberi (SETFA) [8]; in assay [9]; in the assay with Solanum nigrum (SOLNI) [10]; in [11]; in [12]) was 0% in each case.
On to `COc1c(Cl)ccc(-c2nc(C(=O)O)c3c(C)c[nH]c3n2)c1F` [Compound 1-63, 4-carboxy-2-(4-chloro-2-fluoro-3-methoxyphenyl)-5-methyl-7H-pyrrolo[2,3-d]pyrimidine], for which the pest or weed control at 1000 g/ha in assay [1] was found to be 100%; in the assay with Setaria faberi (SETFA) [2], 60%; in the assay with Solanum nigrum (SOLNI) [3], 100%; in assay [4], 40%; in assay [5], 70%; in [6], 60%. Besides, the pest or weed control at 1000 g/ha in [7] is 70%; in the assay with Setaria faberi (SETFA) [8], 10%; in assay [9], 20%; with Solanum nigrum (SOLNI) [10] it was 90%; in assay [11], 30%; in assay [12], 80%.
On to `COC(=O)c1nc(-c2ccc(Cl)c(OC)c2F)nc2[nH]cc(C)c12` [Compound 1-64, 2-(4-chloro-2-fluoro-3-methoxyphenyl)-4-methoxycarbonyl-5-methyl-7H-pyrrolo[2,3-d]pyrimidine], for which the pest or weed control at 1000 g/ha came out at 100% in [1]; 70% in the assay on Setaria faberi (SETFA) [2]; 80% in the assay with Solanum nigrum (SOLNI) [3]; 20% in assay [4]; 70% in [5]; 70% in assay [6]. Further, the pest or weed control at 1000 g/ha was found to be 100% in [7]; 10% in the assay with Setaria faberi (SETFA) [8]; 30% in [9]; 70% with Solanum nigrum (SOLNI) [10]; 20% in assay [11]; 100% in [12].
As for `COc1c(Cl)ccc(-c2nc(C(=O)O)c3cc(C)[nH]c3n2)c1F` [Compound 1-65], the pest or weed control at 1000 g/ha worked out at 40% in assay [1]; 10% with Setaria faberi (SETFA) [2]; 60% in the assay with Solanum nigrum (SOLNI) [3]; 0% in assay [4]; 60% in [5]; 40% in assay [6]. Moreover, the pest or weed control at 1000 g/ha (in assay [7]; in the assay with Setaria faberi (SETFA) [8]; in assay [9]; with Solanum nigrum (SOLNI) [10]; in [11]; in [12]) was 0% each time.
With `COC(=O)c1nc(-c2ccc(Cl)c(OC)c2F)nc2[nH]c(C)cc12` [Compound 1-66, 2-(4-chloro-2-fluoro-3-methoxyphenyl)-4-methoxycarbonyl-6-methyl-7H-pyrrolo[2,3-d]pyrimidine], the pest or weed control at 1000 g/ha in assay [1] came out at 100%; with Setaria faberi (SETFA) [2], 80%; in the assay with Solanum nigrum (SOLNI) [3], 100%; in assay [4], 80%; in [5], 80%; in assay [6], 80%. The pest or weed control at 1000 g/ha was 100% in assay [7]; 70% in the assay on Setaria faberi (SETFA) [8]; 40% in assay [9]; 100% in the assay with Solanum nigrum (SOLNI) [10]; 20% in [11]; 90% in assay [12].
Turning to `COC(=O)c1nc(-c2ccc(Cl)c(OC)c2F)nc2[nH]c(C)c(C)c12` [Compound 1-68, 2-(4-Chloro-2-fluoro-3-methoxyphenyl)-5,6-dimethyl-4-methoxycarbonyl-7H-pyrrolo[2,3-d]pyrimidine], the pest or weed control at 1000 g/ha in assay [1] was determined as 10%; in the assay on Setaria faberi (SETFA) [2], 0%; with Solanum nigrum (SOLNI) [3], 30%; in [4] it was 0%; in assay [5] it was 60%; in assay [6] it was 10%. Besides, the pest or weed control at 1000 g/ha (in assay [7]; in the assay on Setaria faberi (SETFA) [8]; in assay [9]; in the assay on Solanum nigrum (SOLNI) [10]; in [11]; in assay [12]) was 0% in each case.
As to `CCOC(=O)c1nc(-c2ccc(Cl)c(OC)c2F)nc2[nH]cc(C)c12` [Compound 1-75, 2-(4-Chloro-2-fluoro-3-methoxyphenyl)-4-ethoxycarbonyl-5-methyl-7H-pyrrolo[2,3-d]pyrimidine], the pest or weed control at 1000 g/ha was 40% in assay [1]; 0% in the assay on Setaria faberi (SETFA) [2]; 70% in the assay with Solanum nigrum (SOLNI) [3]; 0% in [4]; 70% in assay [5]; 0% in assay [6]. In addition, the pest or weed control at 1000 g/ha (in [7]; in the assay with Setaria faberi (SETFA) [8]; in assay [9]; in the assay with Solanum nigrum (SOLNI) [10]; in assay [11]; in [12]) was 0% in each case.
Turning to `CCCCCCCCOC(=O)c1nc(-c2ccc(Cl)c(OC)c2F)nc2[nH]cc(C)c12` [Compound 1-77, 2-(4-Chloro-2-fluoro-3-methoxyphenyl)-5-methyl-4-(n-octyloxycarbonyl)-7H-pyrrolo[2,3-d]pyrimidine], the pest or weed control at 1000 g/ha in assay [1] is 10%; in the assay on Setaria faberi (SETFA) [2], 10%; in the assay with Solanum nigrum (SOLNI) [3] it was 70%; in [4], 0%; in [5] it was 40%; in [6], 0%. For the same compound, the pest or weed control at 1000 g/ha in assay [7] turned out to be 0%; with Setaria faberi (SETFA) [8] it was 10%; in assay [9], 0%; in the assay on Solanum nigrum (SOLNI) [10], 10%; in [11], 0%; in [12] it was 0%.
On to `COc1c(Cl)ccc(-c2nc(C(=O)OC(C)C)c3c(C)c[nH]c3n2)c1F` [Compound 1-78, 2-(4-Chloro-2-fluoro-3-methoxyphenyl)-4-isopropoxycarbonyl-5-methyl-7H-pyrrolo[2,3-d]pyrimidine], for which the pest or weed control at 1000 g/ha in assay [1] was determined as 0%; with Setaria faberi (SETFA) [2], 0%; in the assay on Solanum nigrum (SOLNI) [3], 60%; in [4], 0%; in [5], 70%; in [6], 0%. Moreover, the pest or weed control at 1000 g/ha is 50% in [7]; 0% in the assay on Setaria faberi (SETFA) [8]; 0% in assay [9]; 40% in the assay with Solanum nigrum (SOLNI) [10]; 0% in assay [11]; 20% in [12].
